Assay [1] has as its system bone marrow-derived macrophages (BMDMs). Briefly: In vitro Aβ phagocytosis assay (CypHer5E-tagged Aβ oligomers, flow cytometry). The format is cell-based, mouse. Conditions: SYK-deficient (Syk^fl/fl LysM^Cre) BMDMs; 10 μM Tideglusib 1 hour before 10 μM CypHer5E-tagged Aβ oligomers; read 24 hours later; vs vehicle. Here is the method: Monomerization of Aβ (1-42) (641-15, California peptide) was achieved using a previously published protocol (Stine et al., 2011), using hexafluoroisopropanol (HFIP) (52517, Sigma-Aldrich). 5 mM monomeric Aβ samples were incubated for 24 hours at 4° C. in F12 media to make a 200 μM stock of oligomeric Aβ. Samples were then incubated with CypHer5E-NHS ester (PA15401, […]) diluted in 0.1 M sodium bicarbonate for 30 minutes covered and at room temperature. Following incubation, Biospin columns (7326227, Bio-Rad) were used to […] unbound dye. CypHer5E-tagged Aβ oligomers were stored at 4° C. prior to BMDM treatment. Bone marrow-derived macrophages (BMDMs) were isolated from the hindlimbs of WT and Syk^fl/fl LysM^Cre mice. Marrow-containing bones were sprayed with 70% ethanol before being placed in IMDM (Thermo Fisher, 12440-053) containing penicillin/streptomycin (P/S) (Thermo Fisher, 15140163). A 25-gauge needle was used to flush marrow from the bones using 20 ml of IMDM containing P/S. An 18-gauge needle was then used to triturate flushed bone marrow 5 times to make a single-cell suspension. Samples were spun down at 1500 rpm for 5 minutes at 4° C. […] 24 hours post Aβ treatment, BMDMs were then collected, and flow cytometry was used to assess CypHer5E fluorescence. […]
A general note: Flow cytometry measures light scatter and fluorescence of single cells or particles in a stream.

The test system of assay [2] is 5xFAD mice. Briefly: Intrahippocampal injection, Aβ load in hippocampus by immunofluorescence. The format is in vivo. Conditions: 2 μg pustulan intrahippocampal vs vehicle-injected hemisphere of the same mouse, 7 days post injection. Here is the method: Floating brains sectioned stored in PBS+0.05% sodium azide were blocked with 2% donkey serum, 1% bovine serum albumin, 0.1% triton, 0.05% tween in PBS for 1 hour at room temperature before applying the primary antibody master mix diluted in this block overnight at 4° C. Samples were stained with anti-AB (D54D2, Cell Signaling, 1:300; or 6e10, BioLegend, 1:1000) to label plaques. To study microglial morphology and numbers, sections were stained with Iba1 (ab5076, Abcam, 1:300). To further characterize microglia, we labeled with Ki67-EF660 (SoIA15, Thermo Fisher, 1:100), anti-Clec7a (R1-8g7, Invivogen, 1:30), Tmem119 (ab209064, Abcam, 1:300), and anti-CD68 (FA-11, BioRad, 1:1000). […] Quantification of images were performed using Fiji software or Imaris software (9.5.1).
5xFAD and 5xFAD Syk^ΔMG mice were anesthetized before receiving a bilateral hippocampal injection of 2 μl of vehicle or 2 μg pustulan into the right and left hemisphere of the hippocampus (at +2 mm lateral, −2 mm posterior, and −2 mm ventral relative to the intersection of the coronal and sagittal suture (bregma) at a rate of 200 nl/min) using a stereotaxic frame (51730U, Stoelting) and nanoliter injector (NL2010MC2T, World Precision Instruments). […] Images were analyzed using Fiji software and Imaris software (9.5.1).

The source of these data is US20260097056A1, “SYK ACTIVATORS AND INHIBITORS IN NEURODEGENERATIVE DISEASES” (University of Virginia Patent Foundation, priority 2022, published 2026).

Take `O=c1sn(-c2cccc3ccccc23)c(=O)n1Cc1ccccc1` [Tideglusib]: the “Aβ phagocytosis (CypHer5E fluorescence, percent CypHer5E+ CD11b^hi F4/80^hi cells)” value in assay [1] is listed as “significantly increased Aβ phagocytosis”.

With pustulan, the “Aβ load in injected hippocampal hemisphere (D54D2 immunofluorescence)” value in assay [2] is given as “decreased Aβ load”.
